# According to patent publication US20160289640A1, “MTOR/STAT3 SIGNAL INHIBITOR-TREATED MESENCHYMAL STEM CELL HAVING IMMUNOMODULATORY ACTIVITY, AND CELL THERAPY COMPOSITION COMPRISING SAME, FOR PREVENTING OR TREATING IMMUNE DISORDERS” (THE CATHOLIC UNIVERSITY OF KOREA INDUSTRY-ACADEMIC …, priority 2013, published 2016):
# “Also recorded” adds a separate entry of the source.
# Columns and labels:
# [1] = test system: mesenchymal stem cells derived from human adipose tissue; experiment: Fluorescence microscope analysis of IL-10 and IDO expression in rapamycin-treated mesenchymal stem cells; format: cell-based; details: FIG. 1b
# [2] = test system: adipose tissue-derived mesenchymal stem cell; experiment: Real-time PCR of cell migration markers; format: cell-based, human; details: 50 nM rapamycin, vs group not treated
# Method: In order to confirm whether adipose tissue-derived mesenchymal stem cell treated with 50 nM rapamycin can migrate into a lesion area due to their cell migration capability, the present inventors analyzed the expression levels of CCR1, CCR2, CCR3, CCR4, CCR7, CCR9, and CXCR4, which are factors associated with the migration of mesenchymal stem cells, via real-time PCR.
# [3] = test system: adipose tissue-derived mesenchymal stem cells; experiment: Real time PCR of inflammatory factors and tumor factors in rapamycin-treated mesenchymal stem cells; format: cell-based; details: 100 nM rapamycin, vs group not treated
# Method: (§1) The mesenchymal stem cells isolated and cultured in <Example 1> were treated with rapamycin, respectively, and the changes in the expression of High-mobility group protein B1 (HMGB-1), IL-6, and IL-1β, which are genes associated with inflammatory factors and tumor factors. First, in a condition of 60 mm dish, for the adipose tissue-derived mesenchymal stem cells, the mesenchymal stem cells in the amount of 5 ? 10^5 cells which were treated with 100 nM rapamycin and cultured at 37° C. were used. In particular, the mesenchymal stem cells not treated with rapamycin were used as a control, and the expression level of the genes having immunomodulatory activity in rapamycin-treated mesenchymal stem cells was analyzed using a real time PCR method.
# [4] = test system: adipose tissue-derived mesenchymal stem cells; experiment: Real-time PCR of autophagy factor markers; format: cell-based, human; details: 10 ng/mL rapamycin, 12 hours, vs group not treated
# Method: The adipose tissue-derived mesenchymal stem cells isolated and cultured in Example 1 were treated with 10 ng/mL rapamycin, and 12 hours later, the cells were collected and the total RNA was obtained therefrom. Then, cDNA Synthesis Kit (Roche, Transcriptor First Strand cDNA Synthesis Kit) was prepared based on the RNA. Then, the expression levels of ATG5, LC3A, and LC3B genes, which are autophagy factor markers, were analyzed via real-time PCR using the thus-synthesized cDNA.
# [5] = test system: mesenchymal stem cells; experiment: Real time PCR of genes associated with immunomodulatory activity in rapamycin-treated mesenchymal stem cells; format: cell-based, human
# Method: as §1, with “IDO, IL-10,” for “High-mobility group protein B1 (HMGB-1), IL-6,”, “TGF-β,” for “IL-1β,”, “immunomodulatory activity.” for “inflammatory factors and tumor factors.”
# [6] = test system: mesenchymal stem cells derived from human adipose tissues; experiment: Formation of autophagic vacuoles observed under electron microscope; format: cell-based; details: 50 μM rapamycin
# Method: Meanwhile, autophagy has the effects capable of controlling the beneficial or harmful effects of immunity and inflammation, and preventing autoimmunity and inflammatory diseases, and thus the rapamycin-treated mesenchymal stem cells of the present invention, due to their autophagy, can be more effectively used for the immunity and treatment of inflammatory diseases. As such, the present inventors treated the mesenchymal stem cells with 50 μM rapamycin and the degree of formation of autophagic vacuoles was observed under electron microscope.
# [7] = test system: adipose tissue-derived mesenchymal stem cells; experiment: Cell migration kit analysis (upper/lower chamber, polycarbonate membrane); format: cell-based, human
# Method: For the confirmation of cell migration of the mesenchymal stem cells treated with rapamycin (10 ng/mL), the cells were analyzed using a cell migration kit (Chemicon, Temecula, Calif.). That is, a group with CD4+T cells alone, a group treated with CD4+T cells and rapamycin (10 ng/mL), and a group treated with SDF-1 cells and CD4+T cells were added into the lower chamber, respectively, and the mesenchymal stem cells were added into the upper chamber. Then, for the migration of the adipose tissue-derived mesenchymal stem cells added into the upper chamber into the lower chamber, the cells passed through a polycarbonate membrane were stained and their number was observed by counting.
# [8] = test system: mesenchymal stem cells; experiment: Flow cytometry of cell phenotype CD markers in rapamycin-treated mesenchymal stem cells; format: cell-based
# Method: The mesenchymal stem cells isolated and cultured in <Example 1> were treated with rapamycin, respectively, and the phenotypes of the mesenchymal stem cells were analyzed. In particular, the mesenchymal stem cells not treated with rapamycin were used as a control, and the expression level of cell markers in the rapamycin-treated mesenchymal stem cells were analyzed via flow cytometry.
# [9] = test system: mTOR signaling pathway in human adipose tissue-derived mesenchymal stem cells; experiment: Western blot analysis of mTOR signaling pathway and autophagy proteins; format: cell-based
# Method: The present inventors, in furtherance with the result of <6-1>, performed western blot analysis to examine whether mTOR signaling pathway can be controlled by rapamycin, in the rapamycin-treated mesenchymal stem cells. For this purpose, human adipose tissue-derived mesenchymal stem cells were treated with 10 ng/mL rapamycin, and 1 hour later, the cells were lysed and proteins were extracted therefrom. Then, the extracted proteins were subjected to SDS-PAGE electrophoresis, electrically transferred to a nitrocellulose membrane, blocked with 5% skim milk for 1 hour, reacted by attaching primary antibodies to Beclin1, ATG5, ATG7, LC3I, LC3II, Phospho-mTOR, mTOR, Rictor, and Ractor, and then reacted by attaching secondary antibodies thereto, and photosensitized into Kodak X-ray using the Enhanced Chemiluminescence (ECL), and the expression levels of the proteins of these genes were analyzed (FIG. 6c).
# [10] = 100 nM rapamycin, 5x10^5 cells, 37° C., real time PCR, vs group not treated
# [11] = 10 ng/mL rapamycin, 1 hour, western blot
smiles,measurement,setting,value
"CO[C@H]1C[C@@H]2CC[C@@H](C)[C@@](O)(O2)C(=O)C(=O)N2CCCC[C@H]2C(=O)O[C@H]([C@H](C)C[C@@H]2CC[C@@H](O)[C@H](OC)C2)CC(=O)[C@H](C)/C=C(\C)[C@@H](O)[C@@H](OC)C(=O)[C@H](C)C[C@H](C)/C=C/C=C/C=C/1C [rapamycin, (3S,6R,7E,9R,10R,12R,14S,15E,17E,19E,21S,23S,26R,27R,34aS)-9,10,12,13,14,21,22,23,24,25,26,27,32,33,34,34a-hexadecahydro-9,27-dihydroxy-3-[(1R)-2-[(1S,3R,4R)-4-hydroxy-3-methoxycyclohexyl]-1-methylethyl]-10,21-dimethoxy-6,8,12,14,20,26-hexamethyl-23,27-epoxy-3H-pyrido [2,1-c][1,4]-oxaazacyclohentriacontine-1,5,11,28,29 (4H,6H,31H)-pentone]",expression level of IL-10 cytokine,[1],significantly increased
same,increase in the expression of CCR1,[2],~115 fold
same,increase in the expression of CCR2,[2],~25 fold
same,increase in the expression of CCR3,[2],~70 fold
same,increase in the expression of CCR4,[2],~32 fold
same,increase in the expression of CCR7,[2],~200 fold
same,increase in the expression of CCR9,[2],~150 fold
same,increase in the expression of CXCR4,[2],~60 fold
same,expression of HMGB-1,[3],significant decrease
same,expression of IL-1β,[3],significant decrease
same,expression of IL-6,[3],significant decrease
same,expression level of ATG5 gene,[4],significant increase
same,expression level of LC3A gene,[4],significant increase
same,expression level of LC3B gene,[4],significant increase
same,increase in the expression of IDO,[5]; [10],~5 fold
same,increase in the expression of IL-10,[5]; [10],~5 fold
same,increase in the expression of TGF-β,[5]; [10],~5 fold
same,increase in TGF-β expression,[5]; rapamycin-treated mesenchymal stem cells derived from adipose tissue vs not treated with rapamycin,~30 fold
same,number of autophagic vacuoles,[6],increase
same,migration of mesenchymal stem cells,"[7]; CD4+T cells and rapamycin (10 ng/mL), vs mesenchymal stem cells not treated with anything",greater migration
same,expression of CD45 (negative marker),[8],negative
same,expression of HLA-DR (negative marker),[8],negative
same,expression level of ATG5 protein,[9]; [11],increase
same,expression level of ATG7 protein,[9]; [11],increase
same,expression level of Beclin1 protein,[9]; [11],increase
same,expression level of LC3I protein,[9]; [11],increase
same,expression level of LC3II protein,[9]; [11],increase
same,mTOR activation (phosphorylation),[9]; [11],inhibited; also recorded: reduced
same,expression of Ractor,[9]; rapamycin treatment,decreased
same,expression of Rictor,[9]; rapamycin treatment,decreased
CO/C1=C\C(C)=C\[C@@H](C)[C@@H](O)[C@@H](C)C/C(C)=C/C=C/[C@H](OC)[C@@H]([C@@H](C)[C@@H](O)[C@H](C)[C@@]2(O)C[C@@H](O)[C@H](C)[C@@H](C(C)C)O2)OC1=O [bafilomycin],cell migration capability of the rapamycin-treated mesenchymal stem cells,[7]; after treatment with bafilomycin,reduced
